For assay [1], the target named is T1, AMPK (AMPKα1β1γ1) (Rattus norvegicus, UniProt P80385).
T1 construct: gene Prkag1; recombinant full-length AMPKα1β1γ1 heterotrimer, 6×His tag at the N-terminal end of the α-subunit; with AMPK α1 (Prkaa1) and β1 (Prkab1) subunits
As to the kind of experiment: STD-NMR and NMR competition titration against MP. It is filed as binding.

Assay [2] deals with T1, AMPK (AMPKα1β1γ1). As to the kind of experiment: MST (Kd […]); ITC (Kd […]); STD-NMR; CD. It is filed as binding.

The Kd is a measure of binding affinity in units of concentration. Higher therefore signals a looser complex.

Molecules are shown by their SMILES.

T1 sequence (P80385 whole entry): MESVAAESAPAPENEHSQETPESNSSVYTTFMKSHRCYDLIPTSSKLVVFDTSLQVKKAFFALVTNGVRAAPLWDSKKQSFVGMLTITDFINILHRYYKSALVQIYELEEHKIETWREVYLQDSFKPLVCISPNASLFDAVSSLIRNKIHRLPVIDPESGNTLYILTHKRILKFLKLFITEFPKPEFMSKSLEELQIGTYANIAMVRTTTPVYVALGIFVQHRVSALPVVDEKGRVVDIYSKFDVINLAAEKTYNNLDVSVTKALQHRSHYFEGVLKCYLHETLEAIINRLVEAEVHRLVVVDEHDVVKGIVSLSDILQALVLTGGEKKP
T1 sequence (P54645 whole entry partner): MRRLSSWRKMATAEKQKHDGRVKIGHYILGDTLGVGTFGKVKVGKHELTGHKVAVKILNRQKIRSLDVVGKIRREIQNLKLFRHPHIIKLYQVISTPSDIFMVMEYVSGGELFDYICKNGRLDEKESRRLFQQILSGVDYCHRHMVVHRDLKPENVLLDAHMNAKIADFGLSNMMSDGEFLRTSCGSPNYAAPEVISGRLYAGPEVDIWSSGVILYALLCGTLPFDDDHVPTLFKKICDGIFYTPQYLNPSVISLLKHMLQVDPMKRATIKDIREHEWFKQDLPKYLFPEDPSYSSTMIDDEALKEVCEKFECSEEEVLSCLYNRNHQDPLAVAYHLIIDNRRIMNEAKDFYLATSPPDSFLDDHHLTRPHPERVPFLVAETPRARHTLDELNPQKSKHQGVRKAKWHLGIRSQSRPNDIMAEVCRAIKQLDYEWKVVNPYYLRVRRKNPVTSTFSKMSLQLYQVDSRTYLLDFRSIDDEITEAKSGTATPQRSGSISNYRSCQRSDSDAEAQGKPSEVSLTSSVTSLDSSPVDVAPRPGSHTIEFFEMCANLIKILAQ
T1 sequence (P80386 2-270 partner): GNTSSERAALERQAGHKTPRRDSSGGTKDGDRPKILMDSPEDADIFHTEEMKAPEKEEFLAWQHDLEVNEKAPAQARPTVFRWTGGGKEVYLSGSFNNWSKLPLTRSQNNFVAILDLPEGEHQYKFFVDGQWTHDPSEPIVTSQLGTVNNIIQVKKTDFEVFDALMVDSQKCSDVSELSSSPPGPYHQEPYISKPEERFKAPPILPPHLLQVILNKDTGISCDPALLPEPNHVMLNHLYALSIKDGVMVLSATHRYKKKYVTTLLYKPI

As to `Nc1ncnc2c1ncn2[C@@H]1O[C@H](COP(=O)(O)O)[C@@H](O)[C@H]1O` [AMP, adenosine monophosphate], in assay [1], the “STD-NMR and NMR competition titration against MP” value is “adenosine monophosphate (AMP) and MP bind directly to AMPK”.

As for `O=P(O)(O)OC[C@H]1O[C@@H](n2cnc3c(Nc4cccc(O)c4)ncnc32)[C@H](O)[C@@H]1O` [MP, ((2R,3S,4R,5R)-3,4-dihydroxy-5-(6-((3-hydroxyphenyl)amino)-9H-purin-9-yl)tetrahydrofuran-2-yl) methyl dihydrogen phosphate], the Kd in assay [2] came out at 4.27 µM.

Source of the values: paper PMC10743971, “MP Allosterically Activates AMPK to Enhance ABCA1 Stability by Retarding the Calpain-Mediated Degradation Pathway” (International Journal of Molecular Sciences, 2023).
